Literature values, collected in US20060030550A1, “Pharmaceutical formulations” (priority 2004, published 2006).
One block for each compound: values may come before it.

Tests used:
[1] = preclinical testing
[2] = topically active steroid
[3] = R112 over placebo, recent study

Structure (SMILES): Cc1cc(CCCOc2c(C)cc(-c3noc(C(F)(F)F)n3)cc2C)on1 [Pleconaril, 1,2,4-oxadiazole3-[3,5-Dimethyl-4-[3-(3-methyl-5-isoxazolyl)propoxy]phenyl]-5-(trifluoremethyl)]
activity against rhinoviruses (rhinoviruses): active against rhinoviruses

Structure (SMILES): O=c1ccn([C@@H]2O[C@H](COP(=O)(O)OP(=O)(O)OP(=O)(O)OP(=O)(O)OC[C@H]3O[C@@H](n4ccc(=O)[nH]c4=O)[C@H](O)[C@@H]3O)[C@@H](O)[C@H]2O)c(=O)[nH]1 [diquafosol]
secretions of natural tear components [1]: increased

bioavailability [2]: not readily bioavailable
Structure (SMILES): C[C@@H]1C[C@H]2[C@@H]3CCC4=CC(=O)C=C[C@]4(C)[C@@]3(Cl)[C@@H](O)C[C@]2(C)[C@@]1(OC(=O)c1ccco1)C(=O)CCl [Mometasone Furoate]

Structure (SMILES): Oc1cccc(Nc2ncc(F)c(Nc3cccc(O)c3)n2)c1 [R112]
symptoms most closely associated with chronic nasal congestion (e.g. stuffy nose) (R112 over placebo): improved
absolute difference over placebo [3]: 9%
relative improvement over placebo [3]: greater than 20%
improvement from baseline measurements (baseline = prior to drug initiation): up to 38%
